# Measured values published in patent publication US20120149775A1, “METHODS FOR PREVENTING AND IMPROVING SKIN ELASTIC PROPERTY LOSS” (SHISEIDO COMPANY, LTD., priority 2010, published 2012).
# Tests used:
# Assay type in all cases: cell-based
# mouse 3T3-L1 cell = experiment: Mouse fibroblast proliferation (alamar Blue); conditions: 48 hours
# Description: The cell employed was a mouse 3T3-L1 cell. This cell was inoculated. at 3×10^4 cells/mL to a commercially available 24-well culture plate (353047, FALCON, Becton, Dickinson and Company Japan), where it was cultured in a commercially available cell culture medium (D-MEM, 11885084, GIBCO, Life Technologies Japan Ltd.) supplemented with 10% bovine serum (16010159, GIBCO, Life Technologies Japan Ltd.). The cell was cultured for about 6 hours in 5% CO2 and saturated water vapor atmosphere at 37° C. Thereafter, the culture medium for culturing the mouse fibroblast was switched to a medium which was the above-mentioned cell culture medium supplemented with 0.5% bovine serum (hereinafter referred to as “mouse fibroblast proliferation evaluation medium”), where the mouse fibroblast was cultured for 12 hours in 5% CO2 and saturated water vapor atmosphere at 37° C. When investigating the effects of saturated and unsaturated fatty acids on the proliferation of the fibroblast, 5 μM and 10 μM palmitic acid (S-33, Wako Pure Chemical Industries, Ltd.), 5 μM and 10 μM oleic acid (07501, Sigma Aldrich Japan K.K.) or 1 μM, 3 μM and 10 μM stearic acid ([…], Sigma Aldrich Japan. K.K.) was added after 12 hours to the mouse fibroblast proliferation evaluation medium), and the fibroblast was cultured for 48 hours in 5% CO2 and saturated water vapor atmosphere at 37° C. As a control, the cell was cultured in a culture medium without these saturated fatty acids and unsaturated fatty acid. […] The cell proliferation rate (%) was calculated as a percentage of the quotient obtained by dividing the fluorescent intensity of the alamar Blue under each experiment condition by the fluorescent intensity in the control group supplemented with no saturated or unsaturated fatty acids.
# [1] = tested on: matrix metalloproteinase 13 gene expression; experiment: Matrix metalloproteinase 13 gene expression in mouse fibroblast (real-time PCR); conditions: for promotive effect on the gene expression of matrix metalloproteinase 13: data not shown
# Description: (§1) The cell culture and the addition of palmitic acid were conducted similarly to Example 1. The mouse fibroblast was inoculated to and incubated in a commercially available 12-well culture plate (353043, FALCON, Becton, Dickinson and Company Japan) at 3×10^4 cells/mL. The culture medium was removed using an aspirator, and each well was washed twice with each 2 ml of PBS. An RNA was extracted from each cell in each well using an RNeasy Protect Kit (74104, Qiagen) according to Manufacturer's instructions. A cDNA was produced according to a standard method and used in a real-time PCR. This real-time PCR employed LightCycler (registered trademark) FastStart DNA Master^PLUS SYBR Green I (Catalog No. 03 515 885 001, Roche Diagnostic K.K.). For amplifying type I collagen α chain, elastin, matrix metalloproteinase 13 and 28S rRNA genes, the forward and reverse primers of SEQ ID NO: 1 and 2, SEQ ID NO: 3 and 4, SEQ ID NO: 5 and 6 and SEQ ID NO: 7 and 8, respectively, were employed. The PCR was conducted under a reaction condition involving 1 cycle of 95° C. for 10 minutes and 35 cycles of 95° C. for 15 seconds, 60° C. for 5 seconds and 72° C. for 5 seconds. The expression levels of type I collagen α chain, elastin and matrix metalloproteinase 13 gene were analyzed by using LightCycler Software Ver. 3.5 (Roche Diagnostic K.K.) and normalized on the basis of the expression level of 28S rRNA. The gene expressions level of the type I collagen α chain, elastin and matrix metalloproteinase 13 were calculated as percentages of the quotients obtained by dividing the gene expression rates (%) under each experimental condition by the gene expression levels in the control groups containing no palmitic acid.
# elastin gene expression [2] = experiment: Elastin gene expression in mouse fibroblast (real-time PCR); conditions: for suppressive effect on the gene expression of elastin: data not shown
# Description: as §1
# [3] = tested on: type I collagen α chain gene expression; experiment: Type I collagen α chain gene expression in mouse fibroblast (real-time PCR); conditions: for suppressive effect on the gene expression of type I collagen α chain: data not shown
# Description: as §1
# elastin gene expression [4] = experiment: Elastin gene expression in human fibroblast (real-time PCR); conditions: 3 μM to 30 μM, dependent on concentration (FIG. 9)
# Description: (§2) The culture medium was removed using an aspirator, and each well was washed twice with each 2 ml of PBS. An RNA was extracted from each cell in each well using an RNeasy Protect Kit (74104, Qiagen) according to Manufacturer's instructions. A cDNA was produced according to a standard method and used in a real-time PCR. This real-time PCR employed LightCycler (registered trademark) FastStart DNA Master^PLUS SYBR Green I (Catalog No. 03 515 885 001, Roche Diagnostic K.K.). […] The expression levels of type I collagen α chain, elastin and matrix metalloproteinase 13 gene were analyzed by using LightCycler Software Ver. […] The gene expressions level of the type I collagen α chain, elastin and matrix metalloproteinase 13 were calculated as percentages of the quotients obtained by dividing the gene expression rates (%) under each experimental condition by the gene expression levels in the control groups containing no palmitic acid. […] The quantification of gene expression was conducted similarly to Example 2. […] The % gene expressions of the type I collagen α chain, elastin and matrix metalloproteinase 1 were calculated as percentages of the quotients obtained by dividing the gene expression levels under each experimental condition by the gene expression levels in the control groups containing no palmitic acid.
# human fibroblast = experiment: Human fibroblast proliferation (alamar Blue); conditions: 5 μM to 30 μM, dependent on concentration (FIG. 7)
# Description: Thereafter, alamar Blue (Trade mark, DAL1025, Invitrogen, Life Technologies Japan Ltd.) was added to the culture medium at a final concentration of 10%, and its supernatant was examined for the fluorescent intensity 2 hours later with an excitation wavelength of 544 nm and a fluorescent intensity of 590 nm in accordance with the manufacture's instruction. The cell proliferation rate (%) was calculated as a percentage of the quotient obtained by dividing the fluorescent intensity of the alamar Blue under each experiment condition by the fluorescent intensity in the control group supplemented with no saturated or unsaturated fatty acids. The cell culture, the addition of palmitic acid and the determination of the % of proliferation of the fibroblast were conducted similarly to Example 1. The human fibroblast (CC-2509, Lonza Japan Ltd.) was incubated for 6 hours in a commercially available cell culture medium (D-MEM, 11885084, GIBCO, Life Technologies Japan Ltd.) supplemented with 10% of fetal bovine serum (FBS) (Biowest). Thereafter, the culture medium for incubating the human fibroblast was switched to the cell culture medium supplemented with 0.5% of fetal bovine serum (hereinafter referred to as “human fibroblast proliferation evaluation medium”) and the human fibroblast was incubated at 37° C. and 5% CO2 under a saturated water vapor atmosphere for 12 hours. […]
# mouse fibroblast = experiment: Effect of EPA and palmitic acid on fibroblast proliferation (alamar Blue); conditions: palmitic acid at 10 μM alone (FIG. 11)
# Description: The cell employed was a mouse 3T3-L1 cell. This cell was inoculated. at 3×10^4 cells/mL to a commercially available 24-well culture plate (353047, FALCON, Becton, Dickinson and Company Japan), where it was cultured in a commercially available cell culture medium (D-MEM, 11885084, GIBCO, Life Technologies Japan Ltd.) supplemented with 10% bovine serum (16010159, GIBCO, Life Technologies Japan Ltd.). The cell was cultured for about 6 hours in 5% CO2 and saturated water vapor atmosphere at 37° C. Thereafter, the culture medium for culturing the mouse fibroblast was switched to a medium which was the above-mentioned cell culture medium supplemented with 0.5% bovine serum (hereinafter referred to as “mouse fibroblast proliferation evaluation medium”), where the mouse fibroblast was cultured for 12 hours in 5% CO2 and saturated water vapor atmosphere at 37° C. […] The cell proliferation rate (%) was calculated as a percentage of the quotient obtained by dividing the fluorescent intensity of the alamar Blue under each experiment condition by the fluorescent intensity in the control group supplemented with no saturated or unsaturated fatty acids. […]
# [5] = tested on: type I collagen α chain gene expression; experiment: Type I collagen α chain gene expression in human fibroblast (real-time PCR); conditions: 10 μM and 30 μM, dependent on concentration (FIG. 8)
# Description: as §2
# [6] = tested on: matrix metalloproteinase 1 gene expression; experiment: Matrix metalloproteinase 1 gene expression in human fibroblast (real-time PCR); conditions: 10 μM and 30 μM, dependent on concentration (FIG. 10)
# Description: as §2
promotive effect on the gene expression of matrix metalloproteinase 13 [1],matrix metalloproteinase 1 gene expression [6],"matrix metalloproteinase 13 gene expression ([1]; 10 μM, vs control (FIG. 6))",Structure (SMILES),"cell proliferation (mouse 3T3-L1 cell; 5 μM and 10 μM, vs control (FIG. 2))",suppressive effect on the gene expression of elastin (elastin gene expression [2]),suppressive effect on the gene expression of type I collagen α chain [3],elastin gene expression (elastin gene expression [4]),cell proliferation (human fibroblast),cell proliferation (mouse fibroblast),"cell proliferation (mouse 3T3-L1 cell; 10 μM, vs control (FIG. 1))",type I collagen α chain gene expression [5],"elastin gene expression (elastin gene expression [2]; 10 μM, vs control (FIG. 5))","type I collagen α chain gene expression ([3]; 10 μM, vs control (FIG. 4))","cell proliferation (mouse 3T3-L1 cell; 1 μM to 10 μM, vs control (FIG. 3))"
did not have,–,–,CCCCCCCC/C=C\CCCCCCCC(=O)O [oleic acid],statistically significant reduction,did not have a suppressive effect,did not have a suppressive effect,–,–,–,–,–,–,–,–
–,statistically significant increase,statistically significant increase,CCCCCCCCCCCCCCCC(=O)O [palmitic acid],–,–,–,statistically significant reduction,statistically significant reduction,reduced markedly,statistically significant reduction,statistically significant reduction,statistically significant reduction,statistically significant reduction,–
did not have,–,–,CCCCCCCCCCCCCCCCCC(=O)O [stearic acid],–,did not have a suppressive effect,did not have a suppressive effect,–,–,–,–,–,–,–,no statistically significant reduction
